In series [1] the test system is E-coli. Kind of series: Bacterial killing efficiency of M^n+ and M^n+/CO3^2− (Example 5). The format is cell-based. The settings on record: iron 200 ppb, zinc 1 ppm, carbonate 20 ppm; input 1×10^5 CFU/mL.
The test system of a further series is S. aureus (MTCC 96). As to the kind of experiment: S. aureus killing efficiency (Example 6). The format is cell-based.
The test system of series [2] is MS2 bacteriophage. Kind of series: Virus killing efficiency, plaque assay (Example 9). The format is cell-based.
The subject of series [3] is MS2 bacteriophage. Kind of series: Kinetics of virus killing efficiency (Example 10). The format is cell-based.
Method: Synthetic water having the TDS between 300-500 ppm and pH=7±0.2 was used in the study. […] 1 mL of the sample along with soft agar was plated on a sterile petridish using plaque assay method after 15 min, 30 min, 45 min and 60 min of contact time.
The subject of series [4] is E. coli. Kind of series: Bacterial killing efficiency at low silver ion concentration (Example 3). The format is cell-based.
From the text: This example describes the method of measuring the bacterial killing efficiency of the composition in comparison to silver ion, when low concentration of silver ion is used. […] Synthetic challenge water contains all the ions as prescribed by US NSF for challenge water studies. Source of carbonate ion is chosen one amongst the following: sodium carbonate, potassium carbonate or ammonium carbonate or a combination thereof. Source of Ag^+ is chosen one amongst the following: silver nitrate, silver acetate, silver sulfate, silver fluoride or a combination thereof. After one hour of standing, 1 mL from the samples was plated along with agar on a sterile petridish using pour plate method.
Series [5] deals with E-coli. Kind of series: Sterility of stored treated water (Example 7). The format is cell-based. Particulars: 24 h storage.
The test system of series [6] is E. coli. Kind of series: Bacterial killing efficiency with varying humic acid (Example 4). The format is cell-based.
Method: In an aspect, 100 mL of synthetic water samples (typically containing bacterial concentration of 1×10^5 CFU/mL, unless otherwise mentioned) containing varying concentrations of humic acid were separately shaken with Ag^+(50 ppb) and Ag^+(50 ppb)/CO3^2−(20 ppm). Synthetic challenge water contains all the ions as prescribed by US NSF for challenge water studies. […] After one hour of standing, 1 mL from the samples was plated along with agar on a sterile petridish using pour plate method.
The test system of the next series is S. aureus. The settings on record: 50 ppb silver ion; input 10^7 CFU/mL; cited from earlier work.
Series [7] has as its system MS2 bacteriophage. As to the kind of experiment: Virus killing efficiency at higher virus input load (Example 11). Particulars: input virus concentration higher than 10^3 PFU/mL; silver ion alone. The format is cell-based.
Method: Synthetic challenge water contains all the ions as prescribed by US NSF for challenge water studies. […] After one hour of contact time, 1 mL of the sample along with soft agar was plated on a sterile petridish using plaque assay method.
The test system of series [8] is E. coli. Kind of series: Bacterial killing efficiency in sea salt containing water (Example 2). The format is cell-based. The settings on record: Ag^+ 50 ppb (composition with CO3^2− 20 ppm), input 1×10^5 CFU/mL, 1 h standing.
Method: In an aspect, 100 mL of synthetic water (typically containing E. coli concentration of 1×10^5 CFU/mL, unless otherwise mentioned) with Ag^+ (50 ppb) and Ag^+ (50 ppb)/CO3^2− (20 ppm) was separately shaken with different concentrations of sea salt. […] Synthetic challenge water contains all the ions as prescribed by US NSF for challenge water studies. Typically, one hour of standing time, unless otherwise mentioned, is provided for the exposure of microorganisms to the biocidal composition. After one hour of standing, 1 mL from the samples was plated along with agar on a sterile petridish using the pour plate method.
Series [9] concerns E. coli. Particulars: cited from earlier work.
The conditions of series [10]: 25° C.; cited from earlier work.

Method for S. aureus (MTCC 96): In an aspect, 100 mL of synthetic water (typically containing E-coli concentration of 1×10^5 CFU/mL, unless otherwise mentioned) was separately shaken with Ag^+ and Ag^+/CO3^2−. Synthetic challenge water contains all the ions as prescribed by US NSF for challenge water studies. Source of carbonate ion is chosen one amongst the following: sodium carbonate, potassium carbonate or ammonium carbonate or a combination thereof. Source of Ag^+ is chosen one amongst the following: silver nitrate, silver acetate, silver sulfate, silver fluoride or a combination thereof. 1 mL of the sample was plated along with nutrient agar on a sterile petridish using the pour plate method after 1 h. After 48 hours of incubation of plating at 37° C., the colonies were counted and recorded.

Regarding `[Fe+3]` [Fe^3+], in the series on E-coli [1], the “reduction in bacterial count” value is listed as “does not offer any reduction in bacterial count”.
As to `O=C(O)O` [CO3^2−, carbonate], the viable bacteria count with S. aureus (MTCC 96) (20 ppm CO3^2− alone) was > 10^5 CFU/mL. Moreover, the virus killing efficiency in the series on MS2 bacteriophage [2] (20 ppm CO3^2−, no Ag^+, 1 h) is 25%; in the series with MS2 bacteriophage [3] (20 ppm CO3^2−, standing time 1 h), 20%. Further, the “reduction in bacterial count by itself” value in the series with E. coli [4] (CO3^2− without Ag^+) was “doesn't provide a significant reduction in bacterial count”.
Turning to `[Ag+]` [Ag^+, silver ion], the results for the “bacterial count after storage” value with E-coli [5] (lower silver concentrations (<50 ppb)) and with E-coli [5] (silver ion 50 ppb) were > 10^3 CFU/mL and 0 CFU/mL, respectively. In addition, in the series on S. aureus (MTCC 96) (silver ion up to 50 ppb, 1 h standing), the S. aureus concentration is ≥ 10^3 CFU/mL. The residual virus result with MS2 bacteriophage [2] (higher silver ion concentration without SiO3^2− or CO3^2−) was “residual virus concentration is present”. In the series on E. coli [6] (50 ppb Ag^+), the “humic acid concentration up to which bacterial count is handled” value is “up to 5 ppm”. Moreover, in the series on E. coli [6] (humic acid 50 ppm, Ag^+ 50 ppb (composition with CO3^2− 20 ppm), input 1×10^5 CFU/mL), the output count entry was “near to the input concentration”. In addition, the “time to inactivate S. aureus” value in the series on S. aureus is reported as “over 24 h”. Further, the virus killing ability entry in the series with MS2 bacteriophage [7] is “unable to obtain complete virus killing ability”. The output bacterial count is 2000 CFU/mL in the series on E. coli [8] (sea salt 850 ppm) and 10,000 CFU/mL in the series on E. coli [8] (sea salt 1100 ppm). In the series with E. coli [9], the “minimum concentration of silver necessary for antibacterial activity” value was 40-50 ppb. For the same compound, the “time at which virus killing efficiency reaches a saturation value” in the series on MS2 bacteriophage [3] (Ag^+ 50 ppb alone) was 1 h. In addition, the “residual viable bacterial count” value in the series on E. coli [4] (50 ppb Ag^+, input 1×10^5 CFU/mL, 1 h) is on record as 10-50 CFU/mL. Besides, the “antibacterial activity, log reduction” value in the series on E. coli [4] (silver ion below 40-50 ppb, synthetic challenge water) was 2-3 log reduction.
Consider `[Cl][Ag]` [AgCl], for which the solubility in water in series [10] was 1.9 µg/mL.

The record behind these values is patent publication US20160135468A1, “A Composition for Enhanced Biocidal Activity and Water Purification Device on the Same” (INDIAN INSTITUTE OF TECHNOLOGY, priority 2013, published 2016).
